# Data published in patent US11248234B2, “Herbicide-resistant hydroxyphenylpyruvate dioxygenases” (BASF SE, priority 2015, dated 2022).
# How the values were obtained:
# [1] = target: Scenedesmus Short HPPD (Seq ID: 4) (Tetradesmus obliquus, UniProt A0A383WMN4, DEL398-433/N195D); test: In vitro HPPD activity assay; type: biochemical; details: for TI (normalized tolerance index): normalized on Arabidopsis wild-type HPPD (SEQ ID NO:42)
# Protocol: (§1) HPPD produces homogentisic acid and CO2 from 4-hydroxyphenylpyruvate (4-HPP) and O2. The activity assay for HPPD is based on the analysis of homogentisic acid by reversed phase HPLC.
# (§2) The assay mixture can contain 150 mM potassium phosphate buffer pH 7.0, 50 mM L-ascorbic acid, 100 μM Catalase (Sigma-Aldrich), 1 μM FeSO4 and 0.2 units of purified mutated HPPD enzyme in a total volume of 505 μl. 1 unit is defined as the amount of enzyme that is required to produce 1 nmol of HGA per minute at 20° C.
# (§3) After a preincubation of 30 min the reaction is started by adding 4-HPP to a final concentration of 0.05 mM. The reaction is allowed to proceed for 45 min at room temperature. The reaction is stopped by the addition of 50 μl of 4.5 M phosphoric acid. The sample is filtered using a […] pore size PVDF filtration device.
# (§4) 5 μl of the cleared sample is analyzed on an UPLC HSS T3 column (particle size 1.8 μm, dimensions 2.1×50 mm; Waters) by isocratic elution using 90% 20 mM NaH2PO4 pH 2.2, 10% methanol (v/v).
# (§5) HGA is detected electrochemically at 750 mV (mode: DC; polarity: positive) and quantified by integrating peak areas (Empower software; Waters).
# (§6) Inhibitors are dissolved in DMSO (dimethylsulfoxide) to a concentration of 0.5 mM. From this stock solution serial five-fold dilutions are prepared in DMSO, which are used in the assay. The respective inhibitor solution accounts for 1% of the assay volume. Thus, final inhibitor concentrations range from 5 μM to 320 pM, respectively. Activities are normalized by setting the uninhibited enzyme activity to 100%. IC50 values are calculated using non-linear regression.
# (§7) Using methods which are described in the above examples or well known in the art, purified, recombinant mutated HPPD enzymes are characterized with respect to their kinetic properties and sensitivity towards HPPD inhibiting herbicides. Apparent michaelis constants (Km) and maximal reaction velocities (Vmax) are calculated by non-linear regression with the software GraphPad Prism 5 (GraphPad Software, La Jolla, USA) using a substrate inhibition model. Apparent kcat values are calculated from Vmax assuming 100% purity of the enzyme preparation. Weighted means (by standard error) of Km and IC50 values are calculated from at least three independent experiments. The Cheng-Prusoff equation for competitive inhibition (Cheng, Y. C.; Prusoff, W. H. Biochem Pharmacol 1973, 22, 3099-3108) is used to calculate dissociation constants (Ki).
# (§8) Field performance of the HPPD enzyme, which is used as a herbicide tolerance trait may depend not only on its lack of sensitivity towards HPPD inhibiting herbicides but also on its activity. To assess the potential performance of a herbicide tolerance trait a tolerance index (TI) is calculated using the following formula: […]
# (§9) Easy comparison and ranking of each trait is enabled by normalizing tolerance indexes on Arabidopsis wild-type HPPD.
# [2] = target: Scenedesmus HPPD (Seq ID: 2) (Tetradesmus obliquus, UniProt A0A383WMN4, N195D); test: In vitro HPPD activity assay; type: biochemical; details: for TI (normalized tolerance index): normalized on Arabidopsis wild-type HPPD (SEQ ID NO:42)
# Sequence of Scenedesmus HPPD (Seq ID: 2) (A0A383WMN4 entry or part of it N195D): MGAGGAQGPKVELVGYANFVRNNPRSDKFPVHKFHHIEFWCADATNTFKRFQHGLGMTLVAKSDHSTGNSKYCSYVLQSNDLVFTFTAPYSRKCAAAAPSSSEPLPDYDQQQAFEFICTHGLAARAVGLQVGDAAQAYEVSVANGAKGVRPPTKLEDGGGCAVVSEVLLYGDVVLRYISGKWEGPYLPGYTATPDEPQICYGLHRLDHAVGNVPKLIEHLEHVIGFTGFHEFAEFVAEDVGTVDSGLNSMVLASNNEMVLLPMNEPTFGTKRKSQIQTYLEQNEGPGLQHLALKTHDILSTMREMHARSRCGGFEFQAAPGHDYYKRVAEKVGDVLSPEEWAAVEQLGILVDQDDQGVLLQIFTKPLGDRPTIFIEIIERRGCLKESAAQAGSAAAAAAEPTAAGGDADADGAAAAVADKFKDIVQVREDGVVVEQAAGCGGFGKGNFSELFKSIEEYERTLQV
# Protocol: as §1, §2, §3, §4, §5, §6, §7, §8, §9
# [3] = target: T1, Arabidopsis HPPD (Seq ID: 42) (Arabidopsis thaliana, UniProt P93836); test: In vitro HPPD activity assay (homogentisic acid by HPLC); type: biochemical; details: benchmark enzyme; normalized on Arabidopsis wild-type HPPD
# T1 construct: His6; made in house; host or cells: E. coli BL21 (DE3)
# T1 sequence (P93836 1-445): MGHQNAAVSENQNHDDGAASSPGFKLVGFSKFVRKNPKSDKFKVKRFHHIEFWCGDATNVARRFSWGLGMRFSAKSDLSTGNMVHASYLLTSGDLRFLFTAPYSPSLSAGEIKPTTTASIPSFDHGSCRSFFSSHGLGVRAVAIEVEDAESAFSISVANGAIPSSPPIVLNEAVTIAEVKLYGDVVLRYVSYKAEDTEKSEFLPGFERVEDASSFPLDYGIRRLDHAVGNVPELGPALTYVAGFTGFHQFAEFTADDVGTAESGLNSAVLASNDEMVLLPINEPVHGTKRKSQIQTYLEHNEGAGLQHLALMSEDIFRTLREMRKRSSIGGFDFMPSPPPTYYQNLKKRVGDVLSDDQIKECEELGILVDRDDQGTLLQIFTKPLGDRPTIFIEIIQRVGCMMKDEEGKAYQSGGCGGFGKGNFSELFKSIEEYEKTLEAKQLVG
# Protocol: as §1, §2, §3, §4, §5
# as §6, with “Thus, final inhibitor concentrations range from 5 μM to 320 pM, respectively.” left out
# as §7, with “Apparent kcat values are calculated from Vmax assuming 100% purity of the enzyme preparation.” left out, “experiments.” for “experiments. The Cheng-Prusoff equation for competitive inhibition (Cheng, Y. C.; Prusoff, W. H. Biochem Pharmacol 1973, 22, 3099-3108) is used to calculate dissociation constants (Ki).”
# as §8, §9
# [4] = test system: SoHPPD H306K (short); test: In vitro HPPD activity assay; type: biochemical, Scenedesmus obliquus; details: normalized on Arabidopsis wild-type HPPD (SEQ ID NO:42)
# Protocol: as §1, §2, §3, §4, §5, §6, §7, §8, §9
# [5] = test system: SoHPPD R327G, E421D (short); test: In vitro HPPD activity assay; type: biochemical, Scenedesmus obliquus; details: normalized on Arabidopsis wild-type HPPD (SEQ ID NO:42)
# Protocol: as §1, §2, §3, §4, §5, §6, §7, §8, §9
# [6] = test system: SoHPPD K326E, E345Q (short); test: In vitro HPPD activity assay; type: biochemical, Scenedesmus obliquus; details: normalized on Arabidopsis wild-type HPPD (SEQ ID NO:42)
# Protocol: as §1, §2, §3, §4, §5, §6, §7, §8, §9
# [7] = test system: SoHPPD Q317H (short); test: In vitro HPPD activity assay; type: biochemical, Scenedesmus obliquus; details: normalized on Arabidopsis wild-type HPPD (SEQ ID NO:42)
# Protocol: as §1, §2, §3, §4, §5, §6, §7, §8, §9
# [8] = test system: SoHPPD V251A (short); test: In vitro HPPD activity assay; type: biochemical, Scenedesmus obliquus; details: normalized on Arabidopsis wild-type HPPD (SEQ ID NO:42)
# Protocol: as §1, §2, §3, §4, §5, §6, §7, §8, §9
# [9] = test system: SoHPPD F39W, L367V, I375L (short); test: In vitro HPPD activity assay; type: biochemical, Scenedesmus obliquus; details: normalized on Arabidopsis wild-type HPPD (SEQ ID NO:42)
# Protocol: as §1, §2, §3, §4, §5, §6, §7, §8, §9
# [10] = test system: SoHPPD E345Q, K326D (short); test: In vitro HPPD activity assay; type: biochemical, Scenedesmus obliquus; details: normalized on Arabidopsis wild-type HPPD (SEQ ID NO:42)
# Protocol: as §1, §2, §3, §4, §5, §6, §7, §8, §9
# [11] = test system: SoHPPD A318P, A319P (short); test: In vitro HPPD activity assay; type: biochemical, Scenedesmus obliquus; details: normalized on Arabidopsis wild-type HPPD (SEQ ID NO:42)
# Protocol: as §1, §2, §3, §4, §5, §6, §7, §8, §9
# [12] = test system: SoHPPD Q317H, A318G, E345Q; test: In vitro HPPD activity assay; type: biochemical, Scenedesmus obliquus; details: normalized on Arabidopsis wild-type HPPD (SEQ ID NO:42)
# Protocol: as §1, §2, §3, §4, §5, §6, §7, §8, §9
# [13] = test system: SoHPPD V251A, H306R, Q317L, A318P, G321P, K331E, L350M (short); test: In vitro HPPD activity assay; type: biochemical, Scenedesmus obliquus; details: normalized on Arabidopsis wild-type HPPD (SEQ ID NO:42)
# Protocol: as §1, §2, §3, §4, §5, §6, §7, §8, §9
# Sequence of Scenedesmus Short HPPD (Seq ID: 4) (A0A383WMN4 entry or part of it N195D/DEL398-433): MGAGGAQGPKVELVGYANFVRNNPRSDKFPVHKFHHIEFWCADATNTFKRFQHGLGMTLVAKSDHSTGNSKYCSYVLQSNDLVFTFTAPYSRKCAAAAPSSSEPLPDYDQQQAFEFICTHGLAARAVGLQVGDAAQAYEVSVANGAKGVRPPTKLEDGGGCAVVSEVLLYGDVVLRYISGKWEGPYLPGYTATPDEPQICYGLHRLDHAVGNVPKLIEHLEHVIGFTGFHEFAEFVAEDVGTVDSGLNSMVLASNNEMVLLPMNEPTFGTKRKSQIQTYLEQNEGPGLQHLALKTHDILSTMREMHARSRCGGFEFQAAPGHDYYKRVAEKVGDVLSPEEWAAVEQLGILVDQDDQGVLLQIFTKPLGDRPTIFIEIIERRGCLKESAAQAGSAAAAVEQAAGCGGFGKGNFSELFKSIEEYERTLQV
Structure (SMILES),Ki [1] [nM],Ki [2] [nM],TI (normalized tolerance index) [3],TI (normalized tolerance index) [4],TI (normalized tolerance index) [5],TI (normalized tolerance index) [6],TI (normalized tolerance index) [7],TI (normalized tolerance index) [8],TI (normalized tolerance index) [9],TI (normalized tolerance index) [10],TI (normalized tolerance index) [11],TI (normalized tolerance index) [12],TI (normalized tolerance index) [13],TI (normalized tolerance index) [1],TI (normalized tolerance index) [2]
"Cc1c(C(=O)c2cnn(C)c2O)ccc(S(C)(=O)=O)c1C1=NOCC1 [Inhibitor 1, [3-(4,5-dihydroisoxazol-3-yl)-2-methyl-4-methylsulfonyl-phenyl]-(5-hydroxy-1-methyl-pyrazol-4-yl)methanone]",46,11,,,,,,,,,,,,,
"CS(=O)(=O)c1ccc(C(=O)C2C(=O)CCCC2=O)c([N+](=O)[O-])c1 [Inhibitor 2, 2-(4-methylsulfonyl-2-nitro-benzoyl)cyclohexane-1,3-dione]",,,1.0,0.1,0.2,0.0,0.2,0.0,0.0,0.1,0.2,0.1,0.7,0.0,0.5
"CCS(=O)(=O)c1cc(C(F)(F)F)ccc1C1=C(O)c2ncccc2C(C)(C)S1(=O)=O [Inhibitor 4, 7-[2-ethylsulfonyl-4-(trifluoromethyl)phenyl]-5,5-dimethyl-6,6-dioxo-thiopyrano[4,3-b]pyridin-8-ol]",,,1.0,0.3,0.0,0.0,0.6,0.0,0.2,0.0,0.6,0.4,0.0,1.4,0.1
"CC(=O)N(C)c1c(Cl)ccc(C2=C(O)c3ncccc3C(C)(C)S2(=O)=O)c1Cl [Inhibitor 5, N-[2,6-dichloro-3-(8-hydroxy-5,5-dimethyl-6,6-dioxo-thiopyrano[4,3-b]pyridin-7-yl)phenyl]-N-methyl-acetamide]",,,1.0,0.2,0.3,0.0,0.4,0.0,0.1,0.2,0.5,0.2,0.3,1.3,0.0
"CCSc1ccc(Cl)c(C(=O)Nc2nnnn2C)c1Cl [Inhibitor 8, 2,6-dichloro-3-ethylsulfanyl-N-(1-methyltetrazol-5-yl)benzamide]",,,1.0,0.3,0.5,0.1,0.5,0.1,0.5,0.3,0.8,0.1,0.2,0.9,0.1
